Test results published in patent US20100298141A1, “SUBSTITUTED PYRIDINE N-OXIDE HERBICIDES” (E. I. DU PONT DE NEMOURS AND COMPANY, priority 2007, published 2010).

What was measured:
[1] = test system: wheat; test: Test C pre-/postemergence test; assay type: in vivo, Triticum aestivum; conditions: Preemergence
Summary of the method: (§1)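 Compounds in a non-phytotoxic solvent with surfactant applied preemergence to seeded pots and, at the same time, postemergence to plants 2–18 cm tall (1- to 4-leaf stage). Paddy tests: pots flooded to 3 cm, compound applied into the water, depth held throughout.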

[2] = test system: green foxtail; test: Test C pre-/postemergence test; assay type: in vivo, Setaria viridis; conditions: Preemergence
Summary of the method: as §1

[3] = test system: common (oilseed) sunflower; test: Test C pre-/postemergence test; assay type: in vivo, Helianthus annuus; conditions: Preemergence
Summary of the method: as §1

[4] = test system: crabgrass; test: Test A pre-/postemergence greenhouse test; assay type: in vivo, Digitaria sanguinalis; conditions: for Crabgrass, Large plant response rating: 0 to 100 scale
Summary of the method: (§2)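 Visual injury ratings against untreated controls, taken roughly ten days after treatment in greenhouse. Plants were sprayed postemergence at one- to two-leaf stage (2–10 cm tall); at the same time, seeded loam/sand soil received a directed preemergence spray. Formulation: non-phytotoxic solvent mixture with surfactant.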

[5] = test system: corn; test: Test C pre-/postemergence test; assay type: in vivo, Zea mays
Summary of the method: as §1

[6] = test system: common ragweed; test: Test C pre-/postemergence test; assay type: in vivo, Ambrosia elation; conditions: Preemergence
Summary of the method: as §1

[7] = test system: Italian ryegrass; test: Test C pre-/postemergence test; assay type: in vivo, Lolium multiflorum; conditions: Preemergence
Summary of the method: as §1

[8] = test system: redroot pigweed; test: Test A pre-/postemergence greenhouse test; assay type: in vivo, Amaranthus retroflexus; conditions: for Pigweed plant response rating: 0 to 100 scale
Summary of the method: as §2

[9] = test system: morningglory; test: Test A pre-/postemergence greenhouse test; assay type: in vivo, Ipomoea spp.; conditions: for Morningglory plant response rating: 0 to 100 scale
Summary of the method: as §2

[10] = test system: blackgrass; test: Test C pre-/postemergence test; assay type: in vivo, Alopecurus myosuroides
Summary of the method: as §1

[11] = test system: woolly cupgrass; test: Test C pre-/postemergence test; assay type: in vivo, Eriochloa villosa; conditions: Preemergence
Summary of the method: as §1

[12] = test system: duck salad; test: Test C flooded paddy test; assay type: in vivo, Heteranthera limosa; conditions: Flood
Summary of the method: (§3)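 Pots were flooded to 3 cm above the soil surface at treatment, compound applied directly to the paddy water, and that depth held throughout. Plants were kept in a greenhouse for 13 to 15 days, then visually rated against untreated controls.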

[13] = test system: umbrella sedge; test: Test C flooded paddy test; assay type: in vivo, Cyperus difformis; conditions: Flood
Summary of the method: as §3

[14] = test system: eastern black nightshade; test: Test C pre-/postemergence test; assay type: in vivo, Solanum ptycanthum; conditions: Preemergence
Summary of the method: as §1

[15] = test system: yellow nutsedge; test: Test C pre-/postemergence test; assay type: in vivo, Cyperus esculentus; conditions: Preemergence
Summary of the method: as §1

[16] = test system: Goosegrass; test: Test C pre-/postemergence test; assay type: in vivo, Eleusin indica; conditions: Preemergence
Summary of the method: as §1

[17] = test system: wild oat; test: Test C pre-/postemergence test; assay type: in vivo, Avena fatua; conditions: Preemergence
Summary of the method: as §1

[18] = 31 g ai/ha, scale 0 to 100 (0 no effect, 100 complete control)
[19] = Postemergence, 125 g ai/ha, 0 is no effect, 100 is complete control
[20] = Postemergence, 500 g ai/ha, 0 is no effect, 100 is complete control
[21] = Preemergence, 125 g ai/ha, 0 no effect, 100 complete control
[22] = Preemergence, 500 g ai/ha, 0 to 100 scale where 0 is no effect and 100 is complete control
[23] = 62 g ai/ha, Preemergence, scale 0 to 100
[24] = Preemergence, 31 g ai/ha, scale 0 to 100 (0 no effect, 100 complete control)
[25] = preemergence, 125 g ai/ha, scale 0 (no effect) to 100 (complete control)
[26] = 62 g ai/ha, scale 0 to 100, 0 no effect, 100 complete control, 13 to 15 days
[27] = 125 g ai/ha, scale 0 to 100, 0 no effect, 100 complete control, 13 to 15 days

CC(c1c(C(F)(F)F)nn(C)c1OC(F)F)S(=O)(=O)c1cc(C(C)(C)C)cc[n+]1[O-] (racemic) [Compound 26]
Wheat plant response rating ([1]; 62 g ai/ha, scale 0 to 100): 0 | Plant response rating, Wheat [1, 18]: 0 | Foxtail, Green plant response rating ([2]; 62 g ai/ha, scale 0 to 100): 85 | Plant response rating, Foxtail, Green [2, 18]: 10 | Plant response rating (0 to 100), Foxtail, Green ([2]; 250 g ai/ha): 100 | Sunflower plant response rating ([3]; 62 g ai/ha, scale 0 to 100): 0 | Plant response rating, Sunflower [3, 18]: 0 | Crabgrass, Large plant response rating [4, 19]: 20 | Crabgrass, Large plant response rating [4, 20]: 40 | Crabgrass, Large plant response rating [4, 21]: 90 | Plant response rating, Crabgrass, Large [4, 22]: 100 | Corn plant response rating [5, 23]: 0 | Plant response rating, Corn [5, 24]: 0 | Plant response rating (0 to 100), Corn ([5]; Preemergence, 250 g ai/ha): 95 | Corn plant response rating [5, 25]: 70 | Ragweed plant response rating ([6]; 62 g ai/ha, scale 0 to 100): 20 | Plant response rating, Ragweed [6, 18]: 0 | Ryegrass, Italian plant response rating ([7]; 62 g ai/ha, scale 0 to 100): 65 | Plant response rating, Ryegrass, Italian [7, 18]: 0 | Pigweed plant response rating [8, 19]: 40 | Pigweed plant response rating [8, 20]: 60 | Pigweed plant response rating [8, 21]: 90 | Plant response rating, Pigweed [8, 22]: 100 | Morningglory plant response rating [9, 19]: 20 | Morningglory plant response rating [9, 20]: 30 | Morningglory plant response rating [9, 21]: 30 | Plant response rating, Morningglory [9, 22]: 100 | Blackgrass plant response rating [10, 23]: 100 | Plant response rating, Blackgrass [10, 24]: 80 | Plant response rating (0 to 100), Blackgrass ([10]; Preemergence, 250 g ai/ha): 100 | Blackgrass plant response rating [10, 25]: 100 | Cupgrass, Woolly plant response rating ([11]; 62 g ai/ha, scale 0 to 100): 40 | Plant response rating, Cupgrass, Woolly [11, 18]: 40 | Plant response rating (0 to 100), Cupgrass, Woolly ([11]; 250 g ai/ha): 98 | Plant response rating, Ducksalad [12, 18]: 40 | Plant response rating, Ducksalad [12, 26]: 65 | Plant response rating, Ducksalad [12, 27]: 65 | Plant response rating, Ducksalad ([12]; 250 g ai/ha, scale 0 to 100 (0 no effect, 100 complete control)): 90 | Plant response rating, Sedge, Umbrella [13, 18]: 70 | Plant response rating, Sedge, Umbrella [13, 26]: 80 | Plant response rating, Sedge, Umbrella [13, 27]: 95 | Plant response rating, Sedge, Umbrella ([13]; 250 g ai/ha, scale 0 to 100, 0 no effect, 100 complete control, 13 to 15 days): 95 | Nightshade plant response rating ([14]; 62 g ai/ha, scale 0 to 100): 100 | Plant response rating, Nightshade [14, 18]: 100 | Nutsedge, Yellow plant response rating ([15]; 62 g ai/ha, scale 0 to 100): 50 | Plant response rating, Nutsedge, Yellow [15, 18]: 0 | Goosegrass plant response rating ([16]; 62 g ai/ha, scale 0 to 100): 98 | Plant response rating, Goosegrass [16, 18]: 90 | Plant response rating (0 to 100), Goosegrass ([16]; 250 g ai/ha): 100 | Oat, Wild plant response rating ([17]; 62 g ai/ha, scale 0 to 100): 60 | Plant response rating, Oat, Wild [17, 18]: 0
